{"source": "PubChem BioAssay (NCI)", "experiment_in_all_cases": "NCI anticancer screen, dose series, 48 h", "key": {"[1]": {"system": "786-0 renal"}, "[2]": {"system": "A498 renal"}, "[3]": {"system": "A549 NSCLC"}, "[4]": {"system": "ACHN renal"}, "[5]": {"system": "BT-549 breast"}, "[6]": {"system": "CAKI-1 renal"}, "[7]": {"system": "CCRF-CEM leukemia"}, "[8]": {"system": "COLO 205 colon"}, "[9]": {"system": "DU-145 prostate"}, "[10]": {"system": "EKVX NSCLC"}, "[11]": {"system": "HCT-116 colon"}, "[12]": {"system": "HCT-15 colon"}, "[13]": {"system": "HL-60(TB) leukemia"}, "[14]": {"system": "HOP-62 NSCLC"}, "[15]": {"system": "HOP-92 NSCLC"}, "[16]": {"system": "HS 578T breast"}, "[17]": {"system": "HT29 colon"}, "[18]": {"system": "IGROV1 ovarian"}, "[19]": {"system": "K-562 leukemia"}, "[20]": {"system": "KM12 colon"}, "[21]": {"system": "LOX IMVI melanoma"}, "[22]": {"system": "M14 melanoma"}, "[23]": {"system": "MALME-3M melanoma"}, "[24]": {"system": "MCF7 breast"}, "[25]": {"system": "MDA-MB-231 breast"}, "[26]": {"system": "MDA-MB-435"}, "[27]": {"system": "NCI-H226 lung"}, "[28]": {"system": "NCI-H23 lung"}, "[29]": {"system": "NCI-H460 lung"}, "[30]": {"system": "NCI-H522 lung"}, "[31]": {"system": "NCI/ADR-RES ovarian"}, "[32]": {"system": "OVCAR-3 ovarian"}, "[33]": {"system": "OVCAR-4 ovarian"}, "[34]": {"system": "OVCAR-5 ovarian"}, "[35]": {"system": "OVCAR-8 ovarian"}, "[36]": {"system": "PC-3 prostate"}, "[37]": {"system": "RPMI-8226 leukemia"}, "[38]": {"system": "RXF 393 renal"}, "[39]": {"system": "SF-268 CNS"}, "[40]": {"system": "SF-295 CNS"}, "[41]": {"system": "SF-539 CNS"}, "[42]": {"system": "SK-MEL-2 melanoma"}, "[43]": {"system": "SK-MEL-28 melanoma"}, "[44]": {"system": "SK-MEL-5 melanoma"}, "[45]": {"system": "SK-OV-3 ovarian"}, "[46]": {"system": "SN12C renal"}, "[47]": {"system": "SNB-19 CNS"}, "[48]": {"system": "SNB-75 CNS"}, "[49]": {"system": "SR leukemia"}, "[50]": {"system": "SW-620 colon"}, "[51]": {"system": "T-47D breast"}, "[52]": {"system": "TK-10 renal"}, "[53]": {"system": "U251 CNS"}, "[54]": {"system": "UACC-257 melanoma"}, "[55]": {"system": "UACC-62 melanoma"}, "[56]": {"system": "UO-31 renal"}}, "note": "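These data come from cells grown in 96-well plates and exposed to compound for 48 hours at five concentrations. The concentration for full growth arrest is given as TGI.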", "data": [{"smiles": "O=C(O)CNc1ccc2c(c1)Cc1cc(Br)ccc1-2", "values": [{"measurement": "TGI", "setting": "[1]", "value": "> 84.5", "unit": "µM"}, {"measurement": "TGI", "setting": "[2]", "value": 85.8, "unit": "µM"}, {"measurement": "TGI", "setting": "[3]", "value": "> 81.3", "unit": "µM"}, {"measurement": "TGI", "setting": "[4]", "value": "> 100", "unit": "µM"}, {"measurement": "TGI", "setting": "[5]", "value": 58.6, "unit": "µM"}, {"measurement": "TGI", "setting": "[6]", "value": 98.4, "unit": "µM"}, {"measurement": "TGI", "setting": "[7]", "value": "> 100", "unit": "µM"}, {"measurement": "TGI", "setting": "[8]", "value": "> 71", "unit": "µM"}, {"measurement": "TGI", "setting": "[9]", "value": 82.4, "unit": "µM"}, {"measurement": "TGI", "setting": "[10]", "value": 49.7, "unit": "µM"}, {"measurement": "TGI", "setting": "[11]", "value": "> 49.1", "unit": "µM"}, {"measurement": "TGI", "setting": "[12]", "value": "> 100", "unit": "µM"}, {"measurement": "TGI", "setting": "[13]", "value": "> 100", "unit": "µM"}, {"measurement": "TGI", "setting": "[14]", "value": "> 67.8", "unit": "µM"}, {"measurement": "TGI", "setting": "[15]", "value": "> 90.7", "unit": "µM"}, {"measurement": "TGI", "setting": "[16]", "value": 36.4, "unit": "µM"}, {"measurement": "TGI", "setting": "[17]", "value": 97.4, "unit": "µM"}, {"measurement": "TGI", "setting": "[18]", "value": "> 100", "unit": "µM"}, {"measurement": "TGI", "setting": "[19]", "value": "> 40.9", "unit": "µM"}, {"measurement": "TGI", "setting": "[20]", "value": 50.7, "unit": "µM"}, {"measurement": "TGI", "setting": "[21]", "value": "> 100", "unit": "µM"}, {"measurement": "TGI", "setting": "[22]", "value": "> 77.1", "unit": "µM"}, {"measurement": "TGI", "setting": "[23]", "value": "> 67.9", "unit": "µM"}, {"measurement": "TGI", "setting": "[24]", "value": "> 100", "unit": "µM"}, {"measurement": "TGI", "setting": "[25]", "value": "> 68.9", "unit": "µM"}, {"measurement": "TGI", "setting": "[26]", "value": 45, "unit": "µM"}, {"measurement": "TGI", "setting": "[27]", "value": "> 79.3", "unit": "µM"}, {"measurement": "TGI", "setting": "[28]", "value": 49.3, "unit": "µM"}, {"measurement": "TGI", "setting": "[29]", "value": "> 60.3", "unit": "µM"}, {"measurement": "TGI", "setting": "[30]", "value": 56.8, "unit": "µM"}, {"measurement": "TGI", "setting": "[31]", "value": "> 63.3", "unit": "µM"}, {"measurement": "TGI", "setting": "[32]", "value": "> 100", "unit": "µM"}, {"measurement": "TGI", "setting": "[33]", "value": 87.2, "unit": "µM"}, {"measurement": "TGI", "setting": "[34]", "value": "> 73.1", "unit": "µM"}, {"measurement": "TGI", "setting": "[35]", "value": "> 100", "unit": "µM"}, {"measurement": "TGI", "setting": "[36]", "value": "> 100", "unit": "µM"}, {"measurement": "TGI", "setting": "[37]", "value": "> 95.5", "unit": "µM"}, {"measurement": "TGI", "setting": "[38]", "value": "> 94.6", "unit": "µM"}, {"measurement": "TGI", "setting": "[39]", "value": "> 100", "unit": "µM"}, {"measurement": "TGI", "setting": "[40]", "value": 97, "unit": "µM"}, {"measurement": "TGI", "setting": "[41]", "value": 58.4, "unit": "µM"}, {"measurement": "TGI", "setting": "[42]", "value": "> 79", "unit": "µM"}, {"measurement": "TGI", "setting": "[43]", "value": "> 100", "unit": "µM"}, {"measurement": "TGI", "setting": "[44]", "value": 25.8, "unit": "µM"}, {"measurement": "TGI", "setting": "[45]", "value": 98.5, "unit": "µM"}, {"measurement": "TGI", "setting": "[46]", "value": "> 69.4", "unit": "µM"}, {"measurement": "TGI", "setting": "[47]", "value": "> 84.6", "unit": "µM"}, {"measurement": "TGI", "setting": "[48]", "value": "> 89.8", "unit": "µM"}, {"measurement": "TGI", "setting": "[49]", "value": 1.31, "unit": "µM"}, {"measurement": "TGI", "setting": "[50]", "value": "> 96.8", "unit": "µM"}, {"measurement": "TGI", "setting": "[51]", "value": "> 100", "unit": "µM"}, {"measurement": "TGI", "setting": "[52]", "value": "> 84.6", "unit": "µM"}, {"measurement": "TGI", "setting": "[53]", "value": 97, "unit": "µM"}, {"measurement": "TGI", "setting": "[54]", "value": 72.7, "unit": "µM"}, {"measurement": "TGI", "setting": "[55]", "value": 76.4, "unit": "µM"}, {"measurement": "TGI", "setting": "[56]", "value": "> 100", "unit": "µM"}]}]}
